Common to all, as to assay type: in vivo, human
The nature of test [1]: Equivalent concentration of bitter taste, sensory evaluation, mixed amino acids (Example 29). As to conditions: 2% mixed amino acids; addition: Derivative 2 10 ppm, Glycyrrhizin 250 ppm, Sucrose 50000 ppm; no addition 0.105. How it is done: (§1) With respect to the solution produced by adding derivative 1 (the product of the present invention), or adding nothing (no addition; the reference product) in the concentration shown in the following table 4 to the amino acid solution (2% solution of arginine by weight), the sensory evaluation was performed (using 10 panelists), and the equivalent concentration of bitter taste was determined. The results were shown in the table 4, wherein the equivalent concentration of bitter taste was shown in the concentration of aqueous solution of anhydrous caffeine which is a substance of bitter taste.
With respect to the solution produced by adding derivative 2, Glycyrrhizin or sucrose (the product of the present invention), or adding nothing (no addition; the-reference product) to 2% (by weight) solution of the mixed amino acids (leucine:valine:isoleucine=1:0.5:0.5 by weight), the sensory evaluation was performed (using 10 panelists), and the equivalent concentration of bitter taste was determined in the same way as that described in Example 28, and shown in the table 5.

A short description of test [2]: Equivalent concentration of bitter taste (Example 30), calcium lactate. As to conditions: derivative 4 2.2 ppm; calcium lactate 1500 ppm; no addition 0.054. As for the experimental part:
as §1
(§2) With respect to the solution produced by adding derivative 4 (2.2 ppm) to each of the substances of Quinine sulfate (39 ppm), anhydrous caffeine (2000 ppm), ferrous citrate (50 ppm), calcium lactate (1500 ppm), and thiamine hydrochloride (5000 ppm) (the product of the present invention), or adding nothing thereto (no addition; the reference product) the reference product (no addition), the sensory evaluation was performed (using 10 panelists), and the equivalent concentration of bitter taste was determined in the same way as that described in Example 28, and shown in table 6.

A short description of test [3]: Equivalent concentration of bitter taste (Example 30), anhydrous caffeine. The conditions noted are these: derivative 4 2.2 ppm; anhydrous caffeine 2000 ppm; no addition 0.205. How it is done: as §1, §2
Test [4] can be described thus: Equivalent concentration of bitter taste (Example 30), ferrous citrate. As to conditions: derivative 4 2.2 ppm; ferrous citrate 50 ppm; no addition 0.027. As for the experimental part: as §1, §2

Consider `COC(=O)[C@H](Cc1ccccc1)NC(=O)[C@H](CC(=O)O)NCCCc1ccc(OC)cc1` [Derivative 2, N-[N-[3-(4-methoxyphenyl)propyl]-L-α-aspartyl]-L-phenylalanine 1-methyl ester], for which the “Equivalent concentration of bitter taste” value in test [1] came to 0.051 g/100 g.
Take `COC(=O)[C@H](Cc1ccccc1)NC(=O)[C@H](CC(=O)O)NCCC(C)(C)c1ccc(O)c(C)c1` [Derivative 4, N-[N-[3-(3-methyl-4-hydroxyphenyl)-3-methylbutyl]-L-α-aspartyl]-L-phenylalanine 1-methyl ester]: the “Equivalent concentration of bitter taste (Amount of anhydrous caffeine g/100 g), Calcium lactate” value in test [2] turned out to be 0.025 g/100 g. Also, the “Equivalent concentration of bitter taste (Amount of anhydrous caffeine g/100 g), Caffeine (anhydrous)” value in test [3] came out at 0.045 g/100 g. Also, in test [4], the “Equivalent concentration of bitter taste (Amount of anhydrous caffeine g/100 g), Ferrous citarte” value is 0.020 g/100 g.

Source of the values: patent US20030059511A1, “Sweetener compositions and uses thereof” (AJINOMOTO CO., INC., priority 1999, published 2003).
